# Assay results reported in US4709032A, “Isoquinolinesulfonamide derivatives” (Asahi Kasei Kogyo Kabushiki Kaisha, priority 1982, dated 1987).
# Columns and labels:
# [1] = tested on: mesenteric artery; experiment: Relaxation of rabbit mesenteric artery contracted with KCl (isolated helical strip); assay type: cell-based; details: Oryctolagus cuniculus; concentration for 50% relaxation (complete relaxation = 100%); KCl 15-20 mM contraction; read-out: Relaxation of Mesenteric Artery ED50
# Description: When, for example, N-(2-guanidinoethyl)-5-isoquinolinesulfonamide, i.e., compound (2) was added and a complete relaxation was designated 100%, the concentration which could bring about a relaxation of 50%, i.e., ED50 was 1 μM.
# After a home bred rabbit of a Japanese species weighing about 3 Kg was subjected to bloodletting, resulting in death and then to abdominal incision, the mesenteric artery was taken out, cut into helicoids of 2 mm×25 mm and suspended in a 20 ml organ bath filled with a Krebs-Henseleit solution into which a mixed gas of 95% by volume of O2 and 5% by volume of CO2 was introduced and one end of the artery was connected with an isometric transducer. When a load of 1.5 g was applied to the artery, the contraction and the relaxation of the artery were recorded as a weight on the transducer (a product of Nippon Koden K.K., Japan, "FD Pickup TB-912T"). The relaxation of the mesenteric artery was observed by adding the isoquinolinesulfonamide derivatives and their pharmaceutically acceptable acid addition salts of this invention to the mesenteric artery at the condition of about one half of the maximum contraction with KCl concentration of 15-20 mM. When the complete relaxation of the mesenteric artery was designated 100%, the concentration of the isoquinolinesulfonamide derivatives and their pharmaceutically acceptable acid addition salts which brought about a relaxation of 50% is shown in Table 26.
# [2] = tested on: femoral artery; experiment: Effect on blood flow volume in femoral artery of anesthetized dogs; assay type: in vivo, dog of mixed breed; details: intravenous
# Description: (§1) The effect of the isoquinolinesulfonamide derivatives and the pharmaceutically acceptable acid addition salts of this invention on the vasodilatation of the femoral and vertebral arteries can be measured by anesthetizing a dog of mixed breed weighing 8 to 15 Kg by an intravenous administration of 35 mg/Kg of pentbarbital, providing an acute type probe (a product of Nippon Koden K.K., Japan) with the femoral and vertebral arteries, administering the isoquinolinesulfonamide derivatives and the pharmaceutically acceptable acid addition salts to the femoral vein through a polyethylene tube inserted into the femoral vein side chain and measuring the blood flow volume with an electromagnetic flowmeter (a product of Nippon Koden K.K., Japan, "MFV-1200"). 1 mg/Kg of N-(2-guanidinoethyl)-5-isoquinolinesulfonamide, i.e., Compound (2) was intravenously administered, the increased blood flow volumes in the vertebral artery and in the femoral artery were 95% and 37%. And the duration time is more than 30 minutes.
# (§2) The effect on the vasodilatation of the femoral and vertebral arteries was measured by anesthetizing a dog of mixed breed weighing 8 to 15 Kg by an intravenous administration of 35 mg/Kg of pentbarbital, providing an acute type probe (a product of Nippon Koden K.K., Japan) with the femoral and vertebral arteries, administering to the femoral vein through a polyethylene tube inserted into the femoral vein side chain, measuring the blood flow volume with an electromagnetic blood flowmeter (a product of Nippon Koden K.K., Japan, "MFV-1200") and measuring the change of blood pressure.
# [3] = tested on: vertebral artery; experiment: Effect on blood flow volume in vertebral artery of anesthetized dogs; assay type: in vivo, dog of mixed breed; details: intravenous
# Description: as §1, §2
# [4] = Hypotensive action (change of blood pressure) in anesthetized dogs; assay type: in vivo, dog of mixed breed; details: intravenous
# Description: as §2
# [5] = tested on: femoral and vertebral arteries; experiment: Duration time of effect in anesthetized dogs (blood flow volume / blood pressure); assay type: in vivo, dog of mixed breed; details: intravenous
# Description: as §1, §2
# [6] = Acute toxicity in mice; details: mouse, in vivo; intravenous administration, male ddY-strain mice; hydrochloric acid salt
# Description: The acute toxicity of the N-(2-guanidinoethyl)-5-isoquinolinesulfonamide dihydrochloride was measured by giving male ddY-strain mouse and rat an intravenous administration and an oral administration.
# The acute toxicity of the hydrochloric acid salt of other compounds was measured by giving male ddY-strain mice an intravenous administration.
Compound,EC50 [1] [µM],also measured
"N=C(N)NCCNS(=O)(=O)c1cccc2cnccc12 [Compound 2, N-(2-Guanidinoethyl)-5-isoquinolinesulfonamide]",1,"Increased Blood Flow Volume in Femoral Artery ([2]; 1 mg/Kg (mm/Kg [sic])): 37%; Increased Blood Flow Volume in Vertebral Artery ([3]; 1 mg/Kg (mm/Kg [sic])): 95%; Average Decreased Blood Pressure ([4]; 1 (mm/Kg [sic])): 32 mmHg; Duration Time ([5]; 1 mg/Kg (table prints mm/Kg), 1 mg/kg): > 30 min; Duration Time ([5]; 1 mg/Kg (table prints mm/Kg), listed as Compound (2), 1 mg/kg): more than 30 Min."
"N=C(N)NCCCNS(=O)(=O)c1cccc2cnccc12 [Compound 3, N-(3-Guanidinopropyl)-5-isoquinolinesulfonamide]",2,–
"N=C(N)NCCCCNS(=O)(=O)c1cccc2cnccc12 [Compound 4, N-(4-Guanidinobutyl)-5-isoquinolinesulfonamide]",2,–
"N=C(N)NCCCCCNS(=O)(=O)c1cccc2cnccc12 [Compound 5, N-(5-Guanidinopentyl)-5-isoquinolinesulfonamide]",3,–
"N=C(N)NCCCCCCNS(=O)(=O)c1cccc2cnccc12 [Compound 6, N-(6-Guanidinohexyl)-5-isoquinolinesulfonamide]",4,–
"N=C(N)NCCCCCCCCNS(=O)(=O)c1cccc2cnccc12 [Compound 7, N-(8-Guanidinooctyl)-5-isoquinolinesulfonamide]",10,–
"N=C(N)NCCCCCCCCCCNS(=O)(=O)c1cccc2cnccc12 [Compound 8, N-(10-Guanidinodecyl)-5-isoquinolinesulfonamide]",15,–
"CC(CNC(=N)N)NS(=O)(=O)c1cccc2cnccc12 (centres unmarked) [Compound 9, N-[(2-Guanidino-1-methyl)ethyl]-5-isoquinolinesulfonamide]",3,–
"CCC(CNC(=N)N)NS(=O)(=O)c1cccc2cnccc12 (centres unmarked) [Compound 10, N-[(1-Guanidinomethyl)propyl]-5-isoquinolinesulfonamide]",5,–
"CCCCC(CNC(=N)N)NS(=O)(=O)c1cccc2cnccc12 (centres unmarked) [Compound 13, N-[(1-Guanidinomethyl)pentyl]-5-isoquinolinesulfonamide]",13,–
"CC(CNS(=O)(=O)c1cccc2cnccc12)NC(=N)N (centres unmarked) [Compound 16, N-(2-Guanidinopropyl)-5-isoquinolinesulfonamide]",3,–
"CCC(CNS(=O)(=O)c1cccc2cnccc12)NC(=N)N (centres unmarked) [Compound 17, N-(2-Guanidinobutyl)-5-isoquinolinesulfonamide]",10,–
"CC(C)C(CNS(=O)(=O)c1cccc2cnccc12)NC(=N)N (centres unmarked) [Compound 19, N-(2-Guanidino-3-methylbutyl)-5-isoquinolinesulfonamide]",15,–
"N=C(N)NCC(NS(=O)(=O)c1cccc2cnccc12)c1ccccc1 (centres unmarked) [Compound 23, N-(2-Guanidino-1-phenylethyl)-5-isoquinolinesulfonamide]",8,–
"N=C(N)NCC(Cc1ccccc1)NS(=O)(=O)c1cccc2cnccc12 (centres unmarked) [Compound 24, N-(2-Guanidino-1-benzylethyl)-5-isoquinolinesulfonamide]",10,–
"N=C(N)NC(CNS(=O)(=O)c1cccc2cnccc12)c1ccccc1 (centres unmarked) [Compound 25, N-(2-Guanidino-2-phenylethyl)-5-isoquinolinesulfonamide]",10,–
"CC(CNC(=N)N)CNS(=O)(=O)c1cccc2cnccc12 (centres unmarked) [Compound 28, N-(3-Guanidino-2-methylpropyl)-5-isoquinolinesulfonamide]",3,–
"N=C(N)NCC(CNS(=O)(=O)c1cccc2cnccc12)c1ccccc1 (centres unmarked) [Compound 31, N-(3-Guanidino-2-phenylpropyl)-5-isoquinolinesulfonamide]",2,Increased Blood Flow Volume in Femoral Artery ([2]; 1 mg/Kg (mm/Kg [sic])): 30%; Increased Blood Flow Volume in Vertebral Artery ([3]; 1 mg/Kg (mm/Kg [sic])): 75%; Average Decreased Blood Pressure ([4]; 1 (mm/Kg [sic])): 15 mmHg; Duration Time ([5]; 1 mg/Kg (mm/Kg [sic])): 28 min; LD50 [6]: 80 mg/kg

Compound,EC50 [1] [µM],also measured
"N=C(N)NCC(CNS(=O)(=O)c1cccc2cnccc12)Cc1ccccc1 (centres unmarked) [Compound 34, N-(3-Guanidino-2-benzylpropyl)-5-Isoquinolinesulfonamide]",2,–
"N=C(N)NC(CCNS(=O)(=O)c1cccc2cnccc12)Cc1ccccc1 (centres unmarked) [Compound 35, N-(3-Guanidino-4-phenylbutyl)-5-isoquinolinesulfonamide]",5,–
"CC(CCNS(=O)(=O)c1cccc2cnccc12)CNC(=N)N (centres unmarked) [Compound 36, N-(4-Guanidino-3-methylbutyl)-5-isoquinolinesulfonamide]",5,–
"N=C(N)NCC(CCNS(=O)(=O)c1cccc2cnccc12)c1ccccc1 (centres unmarked) [Compound 37, N-(4-Guanidino-3-phenylbutyl)-5-isoquinolinesulfonamide]",10,–
"N=C(N)NCC(CCCNS(=O)(=O)c1cccc2cnccc12)Cc1ccccc1 (centres unmarked) [Compound 38, N-(5-Guanidino-4-benzylpentyl)-5-isoquinolinesulfonamide]",11,–
"N=C(N)NCCCC(CNS(=O)(=O)c1cccc2cnccc12)Cc1ccccc1 (centres unmarked) [Compound 39, N-(5-Guanidino-2-benzylpentyl)-5-isoquinolinesulfonamide]",13,–
"CC(NC(=N)N)C(C)NS(=O)(=O)c1cccc2cnccc12 (centres unmarked) [Compound 41, N-(2-Guanidino-1-methylpropyl)-5-isoquinolinesulfonamide]",8,–
"CC(CCCCC(C)NS(=O)(=O)c1cccc2cnccc12)NC(=N)N (centres unmarked) [Compound 43, N-(6-Guanidino-1-methylheptyl)-5-isoquinolinesulfonamide]",5,Increased Blood Flow Volume in Femoral Artery ([2]; 1 mg/Kg (mm/Kg [sic])): 32%; Increased Blood Flow Volume in Vertebral Artery ([3]; 1 mg/Kg (mm/Kg [sic])): 68%; Average Decreased Blood Pressure ([4]; 1 (mm/Kg [sic])): 15 mmHg; Duration Time ([5]; 1 mg/Kg (mm/Kg [sic])): 25 min; LD50 [6]: 66 mg/kg
"N=C(N)N1CCN(S(=O)(=O)c2cccc3cnccc23)CC1 [Compound 44, 4-Amidino-1-(5-isoquinolinesulfonyl)piperazine]",0.6,Increased Blood Flow Volume in Femoral Artery ([2]; 0.5 (mm/Kg [sic])): 29%; Increased Blood Flow Volume in Vertebral Artery ([3]; 0.5 (mm/Kg [sic])): 60%; Average Decreased Blood Pressure ([4]; 0.5 (mm/Kg [sic])): 50 mmHg; Duration Time ([5]; 0.5 (mm/Kg [sic])): > 30 min; LD50 [6]: 12 mg/kg
"N=C(N)N1CCCN(S(=O)(=O)c2cccc3cnccc23)CC1 [Compound 45, 4-Amidino-1-(5-isoquinolinesulfonyl)homopiperazine]",2,–
"CC1CN(S(=O)(=O)c2cccc3cnccc23)C(C)CN1C(=N)N (centres unmarked) [Compound 49, 4-Amidino-2,5-dimethyl-1-(5-isoquinolinesulfonyl)piperazine]",1,–
"O=S(=O)(NCCNC1=NCCN1)c1cccc2cnccc12 [Compound 50, 2-[2-(5-Isoquinolinesulfonamido)ethylaminol]-2-imidazoline]",20,Increased Blood Flow Volume in Femoral Artery ([2]; 1 mg/Kg (mm/Kg [sic])): 19%; Increased Blood Flow Volume in Vertebral Artery ([3]; 1 mg/Kg (mm/Kg [sic])): 65%; Average Decreased Blood Pressure ([4]; 1 (mm/Kg [sic])): 10 mmHg; Duration Time ([5]; 1 mg/Kg (mm/Kg [sic])): 21 min
"O=S(=O)(NCCNC1=NCCCN1)c1cccc2cnccc12 [Compound 51, 2-[2-(5-Isoquinolinesulfonamido)ethylamino]-1,4,5,6-tetrahydropyrimidine]",25,–
"CNC(=N)NCCNS(=O)(=O)c1cccc2cnccc12 [Compound 52, N-[2-(3-Methylguanidino)ethyl]-5-isoquinolinesulfonamide]",7,–
"CN=C(NC)NCCNS(=O)(=O)c1cccc2cnccc12 [Compound 53, N-[2-(2,3-Dimethylguanidino)ethyl]-5-isoquinolinesulfonamide]",10,–
"CCN=C(NCC)NCCNS(=O)(=O)c1cccc2cnccc12 [Compound 54, N-[2-(2,3-Diethylguanidino)ethyl]-5-isoquinolinesulfonamide]",12,–
"CCN=C(N)NCCNS(=O)(=O)c1cccc2cnccc12 [Compound 55, N-[2,(3-Ethylguanidino)ethyl]-5-isoquinolinesulfonamide]",5,–
